Reference: PMC5225157 (Biochemistry, 2016)
* marks the point of attachment. Dansyl = CN(C)c1cccc2c(S(=O)(=O)*)cccc12

How the values were obtained:
human CP4H1 [1] = target: T1, human CP4H1 (Homo sapiens, UniProt P13674); test: Inhibition of human CP4H1 activity by alkene isosteres; format: biochemical; settings: for relative inhibitory potency, cis versus trans Cbz isosteres: Cbz isostere 1.00 mM, CbzGPPGOEt 1.00 mM as substrate, pH 7.8, three independent experiments; for relative inhibitory potency, cis versus trans Cbz isosteres / inhibition of catalysis by human CP4H: α-ketoglutarate 1.00 mM; for inhibition of catalysis by human CP4H: dansyl isostere 100 µM, dansylGPPGOEt 0.50 mM, pH 7.8, 30 °C, mean (± SD) of three independent experiments
T1 sequence (P13674 18-534): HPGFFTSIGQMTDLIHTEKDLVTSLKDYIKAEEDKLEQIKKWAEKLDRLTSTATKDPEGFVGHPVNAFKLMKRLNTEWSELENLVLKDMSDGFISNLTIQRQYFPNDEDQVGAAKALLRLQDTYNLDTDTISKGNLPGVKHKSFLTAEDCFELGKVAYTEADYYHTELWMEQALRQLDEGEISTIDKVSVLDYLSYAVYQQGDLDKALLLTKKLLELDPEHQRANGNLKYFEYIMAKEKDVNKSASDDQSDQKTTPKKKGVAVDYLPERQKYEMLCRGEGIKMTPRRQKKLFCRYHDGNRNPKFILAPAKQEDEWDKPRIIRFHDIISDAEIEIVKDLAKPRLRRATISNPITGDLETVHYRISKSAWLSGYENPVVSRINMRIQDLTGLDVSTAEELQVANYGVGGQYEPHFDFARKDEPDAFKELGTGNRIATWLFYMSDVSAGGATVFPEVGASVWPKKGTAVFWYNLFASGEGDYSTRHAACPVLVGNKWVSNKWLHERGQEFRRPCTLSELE
T1 sequence (P07237 18-508 partner): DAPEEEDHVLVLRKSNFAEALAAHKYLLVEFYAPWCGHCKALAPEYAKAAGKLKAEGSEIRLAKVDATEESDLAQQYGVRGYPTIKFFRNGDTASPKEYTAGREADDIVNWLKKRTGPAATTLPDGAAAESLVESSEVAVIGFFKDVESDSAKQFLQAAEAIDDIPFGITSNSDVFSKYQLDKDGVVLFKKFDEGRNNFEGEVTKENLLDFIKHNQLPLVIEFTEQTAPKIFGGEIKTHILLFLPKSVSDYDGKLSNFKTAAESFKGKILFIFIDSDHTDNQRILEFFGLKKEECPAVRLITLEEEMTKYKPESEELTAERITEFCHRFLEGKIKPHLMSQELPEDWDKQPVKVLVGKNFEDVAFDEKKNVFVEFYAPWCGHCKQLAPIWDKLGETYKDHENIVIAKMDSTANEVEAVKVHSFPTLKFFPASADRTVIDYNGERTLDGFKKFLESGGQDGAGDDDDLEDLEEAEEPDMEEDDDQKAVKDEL

human CP4H1 [2] = target: T1, human CP4H1; test: UPLC assay of model peptides and isosteres as substrates; format: biochemical
[3] = test system: C. reinhardtii P4H-1 (CrP4H-1); test: UPLC assay of dansyl peptides as substrates; format: biochemical, Chlamydomonas reinhardtii; settings: for hydroxylation of dansyl isosteres by CrP4H-1: UPLC, data not shown
CP4H = settings: a CP4H; cited from earlier work
[4] = test system: C. reinhardtii P4H-1 (CrP4H-1); settings: isostere 100 µM, dansylGPPGOEt 0.50 mM, α-ketoglutarate 1.00 mM, NHis6-CrP4H-1 1.2 µM, 30 °C, 1 h, UPLC; three independent experiments

CbzGPtransPGOEt [Compound 4]
relative inhibitory potency, cis versus trans Cbz isosteres (human CP4H1 [1]): the cis isostere inhibits with greater potency than does the trans isostere

dansylGlyProProGlyOEt [Compound 1]
kinetic pattern of turnover (human CP4H1 [2]; dansylGPPGOEt 58–1860 µM, α-ketoglutarate 1.00 mM, pH 7.8, 30 °C): substrate inhibition
substrate inhibition at saturating α-ketoglutarate (human CP4H1 [2]; saturating concentrations of α-ketoglutarate, human CP4H1): observed even at saturating concentrations of α-ketoglutarate
kinetic pattern of turnover (CrP4H-1) ([3]; dansylGPPGOEt 212–2120 µM, α-ketoglutarate 1.00 mM): substrate inhibition phenomenon similar to that observed for human CP4H1

(ProProGly)10
mode of substrate inhibition versus α-ketoglutarate (CP4H): competitive with the cosubstrate α-ketoglutarate
substrate inhibition during turnover of longer collagen mimetic peptide (CP4H): Substrate inhibition had been observed

CbzGPcisPGOEt [Compound 6]
relative inhibitory potency, cis versus trans Cbz isosteres (human CP4H1 [1]): the cis isostere inhibits with greater potency than does the trans isostere

CCOC(=O)CNC(=O)[C@@H]1CCC/C1=C/[C@@H]1CCCN1C(=O)CNS(=O)(=O)c1cccc2c(N(C)C)cccc12 [Compound 5, dansylGPcisPGOEt]
IC50 (human CP4H1 [1]): 75 ± 6 µM
Ki (human CP4H1 [1]): 56 ± 13 µM
inhibition of catalysis by human CP4H (human CP4H1 [1]): inhibitors of catalysis by human CP4H
hydroxylation of dansyl isosteres by CrP4H-1 [3]: did not observe hydroxylation
inhibition of CrP4H-1 [4]: served as inhibitors of CrP4H-1

CCOC(=O)CNC(=O)[C@@H]1CCC/C1=C\[C@@H]1CCCN1C(=O)CNS(=O)(=O)c1cccc2c(N(C)C)cccc12 [Compound 3, dansylGPtransPGOEt]
IC50 (human CP4H1 [1]): 410 ± 30 µM
inhibition of catalysis by human CP4H (human CP4H1 [1]): inhibitors of catalysis by human CP4H
hydroxylation of dansyl isosteres by CrP4H-1 [3]: did not observe hydroxylation
inhibition of CrP4H-1 [4]: served as inhibitors of CrP4H-1

dansylGlyProProGlyOEt (Dansyl-GPPG-OEt; SMILES CCOC(=O)CNC(=O)[C@@H]1CCCN1C(=O)[C@@H]1CCCN1C(=O)CNS(=O)(=O)c1cccc2c(N(C)C)cccc12) [Compound 1]
Ki (human CP4H1 [2]; read-out: Ki (dissociation constant for substrate binding in an inhibitory manner), substrate-inhibition fit (R^2 = 0.98), dansylGPPGOEt 58–1860 µM, α-ketoglutarate 1.00 mM, CP4H1 100 nM, pH 7.8, 30 °C, 15 min, UPLC A289, triplicate): 300 ± 100 µM
